Where “and” joins values, the source holds several entries; their conditions need not be identical. Equal entries are not always repeated. Inconclusive results and toxic doses are left out. No stated cut-off is given here; in the data, active means T/C of 150% or more; inactive means T/C below 125%.
Tested on: L1210 leukemia ip in BDF1 mice, survival T/C
Experiment: NCI In Vivo Anticancer Drug Screen. Data for tumor model L1210 Leukemia (intraperitoneal) in B6D2F1 (BDF1) mice
Settings: endpoint: mean survival time, higher = longer survival
How it was run: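 Read-out is survival time, reported as the treated-group measurement over the vehicle-control measurement.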

[1] = dose: 100.0 mg/kg/injection, schedule: Q04DX002 (ip), vehicle: saline with Tween-80
[2] = dose: 200.0 mg/kg/injection, schedule: Q04DX002 (ip), vehicle: saline with Tween-80
[3] = dose: 400.0 mg/kg/injection, schedule: Q04DX002 (ip), vehicle: saline with Tween-80
[4] = dose: 12.5 mg/kg/injection, schedule: Q01DX009 (ip), vehicle: Klucel (hydroxypropylcellulose) (HPC)
[5] = dose: 25.0 mg/kg/injection, schedule: Q01DX009 (ip), vehicle: Klucel (hydroxypropylcellulose) (HPC)
[6] = dose: 50.0 mg/kg/injection, schedule: Q01DX009 (ip), vehicle: Klucel (hydroxypropylcellulose) (HPC)
[7] = dose: 100.0 mg/kg/injection, schedule: Q04DX003 (ip), vehicle: Klucel (hydroxypropylcellulose) (HPC)
[8] = dose: 200.0 mg/kg/injection, schedule: Q04DX003 (ip), vehicle: Klucel (hydroxypropylcellulose) (HPC)
[9] = dose: 400.0 mg/kg/injection, schedule: Q04DX003 (ip), vehicle: Klucel (hydroxypropylcellulose) (HPC)
[10] = dose: 100.0 mg/kg/injection, schedule: Q01DX001 (ip), vehicle: Klucel (hydroxypropylcellulose) (HPC)
[11] = dose: 200.0 mg/kg/injection, schedule: Q01DX001 (ip), vehicle: Klucel (hydroxypropylcellulose) (HPC)
[12] = dose: 400.0 mg/kg/injection, schedule: Q01DX001 (ip), vehicle: Klucel (hydroxypropylcellulose) (HPC)
[13] = dose: 100.0 mg/kg/injection, schedule: Q04DX003 (ip), vehicle: carboxymethylcellulose (CMC)
[14] = dose: 200.0 mg/kg/injection, schedule: Q04DX003 (ip), vehicle: carboxymethylcellulose (CMC)
[15] = dose: 400.0 mg/kg/injection, schedule: Q04DX003 (ip), vehicle: carboxymethylcellulose (CMC)
[16] = dose: 100.0 mg/kg/injection, schedule: Q01DX009 (ip), vehicle: Klucel (hydroxypropylcellulose) (HPC)
[17] = dose: 200.0 mg/kg/injection, schedule: Q01DX009 (ip), vehicle: Klucel (hydroxypropylcellulose) (HPC)
[18] = dose: 100.0 mg/kg/injection, schedule: Q01DX001 (ip), vehicle: carboxymethylcellulose (CMC)
[19] = dose: 200.0 mg/kg/injection, schedule: Q01DX001 (ip), vehicle: carboxymethylcellulose (CMC)
[20] = dose: 400.0 mg/kg/injection, schedule: Q01DX001 (ip), vehicle: carboxymethylcellulose (CMC)

Measured: T/C

O=N[O-].[Co].[N-]=C=S.[NH2-].[NH2-].[NH2-].[NH2-]
inactive: dose: 6.25 mg/kg/injection, schedule: Q01DX009 (ip), vehicle: saline 106 % of control | dose: 12.5 mg/kg/injection, schedule: Q01DX009 (ip), vehicle: saline 114 % of control | dose: 12.5 mg/kg/injection, schedule: Q04DX003 (ip), vehicle: saline with Tween-80 96 % of control | dose: 13.2 mg/kg/injection, schedule: Q01DX009 (ip), vehicle: saline 104 % of control | dose: 16.0 mg/kg/injection, schedule: Q01DX009 (ip), vehicle: saline 104 % of control | dose: 20.0 mg/kg/injection, schedule: Q01DX009 (ip), vehicle: saline 113 % of control | dose: 25.0 mg/kg/injection, schedule: Q01DX009 (ip), vehicle: saline 104 % of control | dose: 25.0 mg/kg/injection, schedule: Q04DX003 (ip), vehicle: saline with Tween-80 96 % of control | dose: 30.0 mg/kg/injection, schedule: Q01DX009 (ip), vehicle: saline 113 % of control | dose: 35.0 mg/kg/injection, schedule: Q01DX009 (ip), vehicle: saline 104 % of control | dose: 50.0 mg/kg/injection, schedule: Q01DX009 (ip), vehicle: saline 116 % of control | dose: 50.0 mg/kg/injection, schedule: Q04DX003 (ip), vehicle: saline with Tween-80 88 % of control | dose: 100.0 mg/kg/injection, schedule: Q04DX003 (ip), vehicle: saline with Tween-80 105 % of control | dose: 200.0 mg/kg/injection, schedule: Q04DX003 (ip), vehicle: saline with Tween-80 90 % of control

CN1COC(OC(C)(C)C)C(C)(C)C1 (stereo not drawn)
inactive: dose: 100.0 mg/kg/injection, schedule: Q01DX001 (ip), vehicle: saline sonified 90 % of control | dose: 400.0 mg/kg/injection, schedule: Q01DX001 (ip), vehicle: saline sonified 95 % of control

COC1CC2C=CC1C2 (stereo not drawn)
inactive: dose: 50.0 mg/kg/injection, schedule: Q01DX009 (ip), vehicle: saline with Tween-80 92 % of control | dose: 100.0 mg/kg/injection, schedule: Q01DX009 (ip), vehicle: saline with Tween-80 89 % of control | dose: 200.0 mg/kg/injection, schedule: Q01DX009 (ip), vehicle: saline with Tween-80 92 % of control

[O]=[Sn]([OH])[c]1ccccc1
inactive: [1] 102 % of control | [2] 105 % of control | [3] 94 % of control

CC12C(=O)C(C)(C(c3ccccc3)=C1c1ccccc1)C1C=CN(S(C)(=O)=O)C=CC12 (stereo not drawn)
inactive: [1] 86 % of control | [2] 88 % of control | [3] 86 % of control

O=C(NCc1ccco1)Nc1ccc(Cl)cc1
inactive: dose: 100.0 mg/kg/injection, schedule: Q01DX001 (ip), vehicle: saline with Tween-80 101 % of control | dose: 200.0 mg/kg/injection, schedule: Q01DX001 (ip), vehicle: saline with Tween-80 96 % of control | dose: 400.0 mg/kg/injection, schedule: Q01DX001 (ip), vehicle: saline with Tween-80 108 % of control

Nc1[nH]c(=O)ncc1-c1cccc(Cl)c1
inactive: [4] 103 % of control | [5] 95 % of control | [6] 100 % of control and 103 % of control

CC(=O)CC(=O)N1CCCCC1C (stereo not drawn)
inactive: [7] 104 % of control | [8] 101 % of control | [9] 97 % of control

COC(=O)c1ccc(/C=C/c2ccc(S(=O)(=O)F)cc2)cc1
inactive: [10] 91 % of control | [11] 91 % of control | [12] 97 % of control

CCCCN(C(=O)C(F)(F)F)C(C)(C)C(SSSC(c1ccc(Cl)cc1)C(C)(C)N(CCCC)C(=O)C(F)(F)F)c1ccc(Cl)cc1 (stereo not drawn)
inactive: dose: 100.0 mg/kg/injection, schedule: Q01DX009 (ip), vehicle: saline sonified 103 % of control | dose: 100.0 mg/kg/injection, schedule: Q04DX003 (ip), vehicle: saline sonified 96 % of control | dose: 200.0 mg/kg/injection, schedule: Q01DX009 (ip), vehicle: saline sonified 100 % of control | dose: 200.0 mg/kg/injection, schedule: Q04DX003 (ip), vehicle: saline sonified 94 % of control | dose: 400.0 mg/kg/injection, schedule: Q01DX009 (ip), vehicle: saline sonified 96 % of control | dose: 400.0 mg/kg/injection, schedule: Q04DX003 (ip), vehicle: saline sonified 97 % of control

Cc1cc(O)c(N=Nc2ccc(C(=O)O)cc2)cc1C
inactive: dose: 25.0 mg/kg/injection, schedule: Q04DX003 (ip), vehicle: carboxymethylcellulose (CMC) 108 % of control | dose: 50.0 mg/kg/injection, schedule: Q04DX003 (ip), vehicle: carboxymethylcellulose (CMC) 103 % of control | dose: 100.0 mg/kg/injection, schedule: Q01DX001 (ip), vehicle: other 102 % of control | [13] 101 % of control | dose: 200.0 mg/kg/injection, schedule: Q01DX001 (ip), vehicle: other 96 % of control | [14] 101 % of control | dose: 400.0 mg/kg/injection, schedule: Q01DX001 (ip), vehicle: other 93 % of control | [15] 95 % of control

COc1cccc(N2C(=O)CC(=P(c3ccccc3)(c3ccccc3)c3ccccc3)C2=O)c1
inactive: dose: 75.0 mg/kg/injection, schedule: Q01DX001 (ip), vehicle: saline 96 % of control | dose: 150.0 mg/kg/injection, schedule: Q01DX001 (ip), vehicle: saline 95 % of control

CCCCNN
inactive: dose: 75.0 mg/kg/injection, schedule: Q01DX001 (ip), vehicle: other 96 % of control | dose: 150.0 mg/kg/injection, schedule: Q01DX001 (ip), vehicle: other 113 % of control

CC(C)=CCC(N)C(C)c1ccccc1 (stereo not drawn)
inactive: [4] 96 % of control | [5] 98 % of control | dose: 25.0 mg/kg/injection, schedule: Q04DX002 (ip), vehicle: Klucel (hydroxypropylcellulose) (HPC) 94 % of control | [6] 104 % of control | dose: 50.0 mg/kg/injection, schedule: Q04DX002 (ip), vehicle: Klucel (hydroxypropylcellulose) (HPC) 105 % of control | dose: 100.0 mg/kg/injection, schedule: Q04DX002 (ip), vehicle: Klucel (hydroxypropylcellulose) (HPC) 102 % of control

Nc1ccc([N+](=O)[O-])cc1N=C/C=C/c1ccccc1
inactive: [6] 101 % of control | [16] 96 % of control | [17] 92 % of control

CC1c2c(-c3ccccc3)oc(-c3ccccc3)c2C(C)C(Br)C1Br (stereo not drawn)
inactive: [16] 121 % of control | [7] 103 % of control | [17] 104 % of control | [8] 90 % of control | dose: 400.0 mg/kg/injection, schedule: Q01DX009 (ip), vehicle: Klucel (hydroxypropylcellulose) (HPC) 109 % of control | [9] 92 % of control

O=C(COc1ccc([N+](=O)[O-])cc1)OCCN1CCOCC1
inactive: [18] 92 % of control | [19] 111 % of control | [20] 101 % of control

BrC1C2CCC(C2)C1Br (stereo not drawn)
inactive: dose: 100.0 mg/kg/injection, schedule: Q01DX001 (ip), vehicle: saline 102 % of control | dose: 200.0 mg/kg/injection, schedule: Q01DX001 (ip), vehicle: saline 100 % of control | dose: 400.0 mg/kg/injection, schedule: Q01DX001 (ip), vehicle: saline 100 % of control

O=[N+]([O-])c1cccc(N=Cc2ccccc2O)c1
inactive: [10] 93 % of control | [11] 88 % of control | [12] 88 % of control

O=C1c2cccc3cc([N+](=O)[O-])cc(c23)C(=O)N1CC1CCCO1 (stereo not drawn)
inactive: [13] 94 % of control | [14] 96 % of control | [15] 107 % of control

CNC(=O)Nc1ccc(C)cc1
inactive: [18] 108 % of control | [19] 111 % of control | [20] 111 % of control

COc1cc(C=C(C#N)C#N)ccc1OC(=O)c1cc(OC)c(OC)c(OC)c1
inactive: dose: 100.0 mg/kg/injection, schedule: Q04DX002 (ip), vehicle: gum acacia 98 % of control | dose: 200.0 mg/kg/injection, schedule: Q04DX002 (ip), vehicle: gum acacia 92 % of control | dose: 400.0 mg/kg/injection, schedule: Q04DX002 (ip), vehicle: gum acacia 92 % of control

— PubChem BioAssay AID248 (DTP/NCI, 2004)
